Experimental data: US20080261994A1, “CYCLOPROPANE COMPOUNDS AND PHARMACEUTICAL USE THEREOF” (Japan Tobacco Inc., priority 2003, published 2008)
Like-named read-outs stand apart in the source and are kept apart here.

How the values were obtained:
Type in all cases: biochemical
[1] = target: T1, MMP-1 (Homo sapiens, UniProt P03956); assay: MMP-1 inhibitory action (Type I collagen Activity Measurement kit, FITC-labeled collagen type I)
T1 sequence (P03956 100-469): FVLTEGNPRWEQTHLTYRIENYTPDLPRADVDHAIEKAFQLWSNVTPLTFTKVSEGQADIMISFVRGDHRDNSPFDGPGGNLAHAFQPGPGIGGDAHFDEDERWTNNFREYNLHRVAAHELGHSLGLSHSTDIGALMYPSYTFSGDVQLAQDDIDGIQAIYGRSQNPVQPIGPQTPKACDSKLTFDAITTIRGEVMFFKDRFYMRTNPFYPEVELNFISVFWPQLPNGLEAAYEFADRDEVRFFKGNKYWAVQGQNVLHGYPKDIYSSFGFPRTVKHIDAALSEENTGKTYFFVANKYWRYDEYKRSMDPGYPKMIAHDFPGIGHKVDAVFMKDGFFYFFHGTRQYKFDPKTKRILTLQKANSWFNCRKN

[2] = target: T2, Recombinant Human MMP-13 (Homo sapiens, UniProt P45452); assay: MMP-13 inhibitory activity (MMP-13 specific fluorescent substrate with quencher)
T2 construct: purchased R&D systems 511-MM
Procedure, shortened: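 IC50 (μM) derived from % inhibition, normalised to wells without enzyme and without inhibitor, fluorescence read at 325/405 nm. Enzyme and compound preceded addition of the quenched 7-MCA…DPA substrate; Tris-HCl buffer, 25 °C for 1 h, acetic-acid stop.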

[3] = target: T3, aggrecanase-1 (Homo sapiens, UniProt O75173); assay: Aggrecanase-1 inhibitory action (Particle Assay, GAG release from aggrecan-containing polyacrylamide particles)
T3 sequence (O75173 213-837): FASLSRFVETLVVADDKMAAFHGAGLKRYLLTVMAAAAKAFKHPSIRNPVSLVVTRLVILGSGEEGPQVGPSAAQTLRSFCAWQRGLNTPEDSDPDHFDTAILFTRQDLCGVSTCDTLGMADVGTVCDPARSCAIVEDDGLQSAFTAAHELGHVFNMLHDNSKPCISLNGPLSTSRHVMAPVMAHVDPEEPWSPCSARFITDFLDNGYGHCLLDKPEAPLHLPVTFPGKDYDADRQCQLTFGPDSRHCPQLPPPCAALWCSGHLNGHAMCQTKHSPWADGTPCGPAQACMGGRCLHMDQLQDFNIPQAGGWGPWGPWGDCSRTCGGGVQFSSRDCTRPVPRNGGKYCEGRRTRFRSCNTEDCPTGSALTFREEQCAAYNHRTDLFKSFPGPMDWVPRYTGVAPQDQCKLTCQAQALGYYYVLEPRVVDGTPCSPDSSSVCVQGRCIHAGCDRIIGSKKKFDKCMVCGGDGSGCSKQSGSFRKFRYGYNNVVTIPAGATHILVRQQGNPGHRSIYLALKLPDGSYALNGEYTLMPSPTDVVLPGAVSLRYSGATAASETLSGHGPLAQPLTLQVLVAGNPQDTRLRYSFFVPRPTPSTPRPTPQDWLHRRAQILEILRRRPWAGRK
Procedure, shortened: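 Readout was dimethylmethylene blue absorbance (595 nm) of glycosaminoglycan liberated into supernatant, calibrated with whale chondroitin sulfate. Substrate was aggrecan in polyacrylamide particles, digested 15 h at 37° C in Tris-HCl; TC50 (μM) derived from inhibition relative to no-enzyme and no-inhibitor controls.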

[4] = Experimental Example 2, read-out: IC50 MMP1
[5] = Experimental Example 3, read-out: IC50 MMP13
[6] = Experimental Example 1, read-out: IC50 AG1
[7] = MMP-1 inhibitory action, FITC-labeled collagen type I, 37° C. for 3 hr, read-out: IC50 MMP1 (Experimental Example 2)
[8] = Recombinant Human MMP-13, fluorescent substrate, 25° C. for 1 h, read-out: IC50 MMP13 (Experimental Example 3)
[9] = aggrecanase-1 inhibitory action, read-out: IC50 AG1 (Experimental Example 1)

| Compound | IC50 [1, 4] [nM] | IC50 [2, 5] [nM] | IC50 [3, 6] [nM] | IC50 [1, 7] [nM] | IC50 [2, 8] [nM] | IC50 [3, 9] [nM] |
| --- | --- | --- | --- | --- | --- | --- |
| C[C@]1(c2ccccc2)C[C@@]1(NS(=O)(=O)c1ccc(-n2cc(C(F)(F)F)cn2)s1)C(=O)O [Example 2-599] | ≥ 1000 | < 1000 | < 100 |  |  |  |
| O=C(O)[C@]1(NS(=O)(=O)c2ccc3c(c2)Cc2cc(F)ccc2-3)C[C@@H]1c1ccccc1 [Example 2-141] |  |  |  | ≥ 1000 | < 100 | < 1000 |
| C[C@]1(c2ccccc2)C[C@@]1(NS(=O)(=O)c1ccc(-c2ccncc2)s1)C(=O)O [Example 2-526] | ≥ 1000 | ≥ 1000 | ≥ 1000 |  |  |  |
| Cc1cc(N2CCN(S(=O)(=O)N[C@@]3(C(=O)O)C(C)[C@@H]3c3ccccc3)CC2)no1 (stereo partly drawn) [Example 2-475] | ≥ 10000 | ≥ 1000 | ≥ 1000 |  |  |  |
| O=C(O)C1(NS(=O)(=O)c2ccc(-c3cc(C(F)(F)F)on3)s2)CC1(CN1CCCC1)c1ccccc1 (stereo not drawn) [Example 2-329] | ≥ 10000 | ≥ 1000 | ≥ 1000 |  |  |  |
| CC1[C@H](c2ccccc2)[C@]1(NS(=O)(=O)c1ccc(-c2ccc(Cl)cc2F)s1)C(=O)O (stereo partly drawn) [Example 2-407] | < 1000 | < 100 | < 100 |  |  |  |
| C[C@]1(c2ccccc2)C[C@@]1(NS(=O)(=O)c1ccc(-c2ccc3c(c2)OCO3)s1)C(=O)O [Example 2-449] | ≥ 1000 | < 100 | < 100 |  |  |  |
| CC1[C@H](c2ccccc2)[C@]1(NS(=O)(=O)N1CCC(OCc2cccc(Cl)c2)C1)C(=O)O (stereo partly drawn) [Example 2-549] | ≥ 1000 | ≥ 1000 | ≥ 1000 |  |  |  |
| C[C@@H]1[C@H](c2ccccc2)[C@]1(NS(=O)(=O)c1ccc(-c2cc(C(F)(F)F)on2)s1)C(=O)O [Example 2-7, (1S,2R,3R)-2-methyl-3-phenyl-1-[5-(5-trifluoromethyl-isoxazol-3-yl)-thiophene-2-sulfonylamino]-cyclopropanecarboxylic acid] |  |  |  | < 1000 | < 100 | < 100 |
| CC1[C@H](c2ccccc2)[C@]1(NS(=O)(=O)c1ccc(-n2cc(Cl)cn2)s1)C(=O)O (stereo partly drawn) [Example 2-444] | < 1000 | < 100 | < 100 |  |  |  |
| NCCc1ccc([C@H]2C[C@@]2(NS(=O)(=O)c2ccc(-c3cc(C(F)(F)F)on3)s2)C(N)=O)cc1 [Example 2-300] | ≥ 1000 | < 100 | < 1000 |  |  |  |
| C[C@]1(c2ccccc2)C[C@@]1(NS(=O)(=O)c1ccc(-c2ccc(Cl)cc2F)s1)C(=O)O [Example 2-406] | < 1000 | < 100 | < 100 |  |  |  |
| O=C(O)C1(NS(=O)(=O)c2ccc(-c3cc(C(F)(F)F)on3)s2)CC1c1cc(CO)on1 (stereo not drawn) [Example 2-318] | ≥ 10000 | ≥ 10000 | ≥ 1000 |  |  |  |
| C[C@]1(c2ccccc2)C[C@@]1(NS(=O)(=O)c1ccc(-n2cc(CO)cn2)s1)C(=O)O [Example 2-603] | < 1000 | < 1000 | < 1000 |  |  |  |
| CC1[C@H](c2ccccc2)[C@]1(NS(=O)(=O)c1ccc(OCc2ccc(Cl)cc2Cl)cc1)C(=O)O (stereo partly drawn) [Example 2-324] | ≥ 10000 | ≥ 1000 | ≥ 1000 |  |  |  |
| C[C@@H]1[C@H](c2ccccc2)[C@]1(NS(=O)(=O)N1CCN(c2ccc(C(F)(F)F)cn2)CC1)C(=O)O [Example 2-5, (1S,2R,3R)-2-methyl-3-phenyl-1-[4-(5-trifluoromethyl-pyridin-2-yl)-piperazine-1-sulfonylamino]-cyclopropanecarboxylic acid] |  |  |  | ≥ 1000 | < 100 | < 1000 |
| CC(=O)c1cnn(-c2ccc(S(=O)(=O)N[C@@]3(C(=O)O)C(C)[C@@H]3c3ccccc3)s2)c1 (stereo partly drawn) [Example 2-546] | < 100 | < 100 | < 100 |  |  |  |

More lines, now with the values ahead:

| IC50 [1, 4] [nM] | IC50 [2, 5] [nM] | IC50 [3, 6] [nM] | IC50 [1, 7] [nM] | IC50 [2, 8] [nM] | IC50 [3, 9] [nM] | Compound |
| --- | --- | --- | --- | --- | --- | --- |
| ≥ 1000 | < 1000 | < 1000 |  |  |  | NCc1ccc([C@@H]2C[C@]2(NS(=O)(=O)c2ccc(-c3cc(C(F)(F)F)on3)s2)C(=O)O)cc1 [Example 2-289] |
|  |  |  | ≥ 1000 | < 100 | < 100 | O=C(Cc1cccc(C2CC2(NS(=O)(=O)c2ccc(-c3ccc(Cl)cc3)s2)C(=O)O)c1)N1CCOCC1 (stereo not drawn) [Example 2-190] |
|  |  |  | ≥ 10000 | < 1000 | < 100 | CN(C)C(=O)c1ccccc1C1CC1(NS(=O)(=O)c1ccc(-c2ccc(Cl)cc2)s1)C(=O)O (stereo not drawn) [Example 2-215] |
|  |  |  | ≥ 10000 | < 1000 | < 1000 | CN1CCN(C(=O)c2cccc(C3CC3(NS(=O)(=O)c3ccc(-c4ccc(Cl)cc4)s3)C(=O)O)c2)CC1 (stereo not drawn) [Example 2-200] |
|  |  |  | ≥ 1000 | < 100 | < 100 | O=C(O)[C@]1(NS(=O)(=O)c2ccc(-c3cc(CF)on3)s2)C[C@@H]1c1ccccc1 [Example 2-98] |
| ≥ 1000 | < 100 | < 1000 |  |  |  | O=C(CSCC1(c2ccccc2)CC1(NS(=O)(=O)c1ccc(-c2ccc(Cl)cc2)s1)C(=O)O)N1CCOCC1 (stereo not drawn) [Example 2-359] |
|  |  |  | ≥ 1000 | < 100 | < 100 | O=C(O)C1(NS(=O)(=O)c2ccc(-c3ccc(Cl)cc3)s2)CC1c1cccc(NS(=O)(=O)C(F)(F)F)c1 (stereo not drawn) [Example 1-132] |
|  |  |  | ≥ 1000 | < 1000 | < 100 | COC(=O)c1cccc(C2CC2(NS(=O)(=O)c2ccc(-c3ccc(Cl)cc3)s2)C(=O)O)c1 (stereo not drawn) [Example 2-184] |
|  |  |  | ≥ 10000 | < 1000 | < 1000 | O=C(NCCO)c1cccc(C2CC2(NS(=O)(=O)c2ccc(-c3ccc(Cl)cc3)s2)C(=O)O)c1 (stereo not drawn) [Example 2-75] |
|  |  |  | ≥ 10000 | < 100 | < 100 | CN(C)C(=O)Cc1cccc(C2CC2(NS(=O)(=O)c2ccc(-c3ccc(Cl)cc3)s2)C(=O)O)c1 (stereo not drawn) [Example 2-189] |
|  |  |  | ≥ 10000 | ≥ 10000 | ≥ 10000 | O=C(O)c1ccc(S(=O)(=O)NC2(C(=O)O)CC2c2ccccc2)s1 (stereo not drawn) [Example 2-103] |
|  |  |  | ≥ 1000 | < 100 | < 100 | Nc1cccc([C@H]2C[C@@]2(NS(=O)(=O)c2ccc(-c3ccc(Cl)cc3)s2)C(=O)O)c1 [Example 2-174] |
| ≥ 10000 | < 1000 | < 100 |  |  |  | O=C(O)C1(NS(=O)(=O)c2ccc(-c3ccc(Cl)cc3)s2)CC1(CSCCO)c1ccccc1 (stereo not drawn) [Example 2-345] |
|  |  |  | ≥ 1000 | < 100 | < 1000 | O=C(Cc1ccccc1C1CC1(NS(=O)(=O)c1ccc(-c2cc(C(F)(F)F)on2)s1)C(=O)O)N1CCOCC1 (stereo not drawn) [Example 2-243] |
|  |  |  | ≥ 10000 | < 1000 | < 1000 | CC(C)C1CC1(NS(=O)(=O)c1ccc(-c2ccc(Cl)cc2)s1)C(=O)O (stereo not drawn) [Example 2-59] |
| ≥ 1000 | < 1000 | < 1000 |  |  |  | O=C(O)[C@]1(NS(=O)(=O)c2ccc(-c3ccc([N+](=O)[O-])cc3)s2)C[C@@H]1c1ccccc1 [Example 2-388] |
| ≥ 10000 | < 1000 | < 100 |  |  |  | C[C@@H]1CN(CC2(c3ccccc3)CC2(NS(=O)(=O)c2ccc(-c3ccc(Cl)cc3)s2)C(=O)O)C[C@H](C)O1 (stereo partly drawn) [Example 2-344] |
|  |  |  | ≥ 10000 | ≥ 1000 | ≥ 1000 | Cc1nc(-c2ccc(S(=O)(=O)N[C@@]3(C(=O)O)C[C@@H]3c3ccccc3)s2)cs1 [Example 2-50] |
|  |  |  | ≥ 1000 | < 100 | < 1000 | Nc1cccc(C2CC2(NS(=O)(=O)c2ccc(-c3ccc(Cl)cc3)cc2)C(=O)O)c1 (stereo not drawn) [Example 1-18] |
|  |  |  | ≥ 1000 | < 100 | < 1000 | COc1cccc(C2CC2(NS(=O)(=O)c2ccc(-c3ccc(Cl)cc3)cc2)C(=O)O)c1 (stereo not drawn) [Example 1-12] |
|  |  |  | ≥ 1000 | < 100 | < 1000 | CN1CCN(C(=O)CCc2cccc(C3CC3(NS(=O)(=O)c3ccc(-c4cc(C(F)(F)F)on4)s3)C(=O)O)c2)CC1 (stereo not drawn) [Example 2-235] |
